In publication PMC12155096 (International Journal of Molecular Sciences, 2025):

Experiments:
human CYP1A2 = target: T1, human CYP1A2 (Homo sapiens, UniProt P05177)
T1 sequence (P05177 1-516): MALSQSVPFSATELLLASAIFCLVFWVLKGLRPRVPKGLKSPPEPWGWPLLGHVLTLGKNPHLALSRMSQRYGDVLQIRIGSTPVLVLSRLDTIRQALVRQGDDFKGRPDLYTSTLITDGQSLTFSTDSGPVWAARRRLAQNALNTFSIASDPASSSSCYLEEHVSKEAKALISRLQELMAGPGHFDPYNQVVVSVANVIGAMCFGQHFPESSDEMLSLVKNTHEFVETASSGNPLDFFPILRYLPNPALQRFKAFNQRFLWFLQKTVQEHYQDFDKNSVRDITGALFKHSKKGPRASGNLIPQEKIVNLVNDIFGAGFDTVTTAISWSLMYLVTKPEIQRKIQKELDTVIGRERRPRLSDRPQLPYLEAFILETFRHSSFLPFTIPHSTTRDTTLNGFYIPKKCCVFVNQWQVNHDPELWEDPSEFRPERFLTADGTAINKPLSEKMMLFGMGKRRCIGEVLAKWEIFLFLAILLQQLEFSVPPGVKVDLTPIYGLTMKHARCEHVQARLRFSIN

human CYP2D6 = human CYP2D6 (Homo sapiens, UniProt P10635)
[1] = target: Photinus pyralis (firefly) luciferase (Photinus pyralis, UniProt P08659); experiment: biochemical; type: biochemical
CYP3A4 = CYP3A4 (Homo sapiens, UniProt P08684)
human CYP2C9 = human CYP2C9 (Homo sapiens, UniProt P11712)
human CYP2C19 = human CYP2C19 (Homo sapiens, UniProt P33261)
Sequence of human CYP2C19 (P33261 whole entry): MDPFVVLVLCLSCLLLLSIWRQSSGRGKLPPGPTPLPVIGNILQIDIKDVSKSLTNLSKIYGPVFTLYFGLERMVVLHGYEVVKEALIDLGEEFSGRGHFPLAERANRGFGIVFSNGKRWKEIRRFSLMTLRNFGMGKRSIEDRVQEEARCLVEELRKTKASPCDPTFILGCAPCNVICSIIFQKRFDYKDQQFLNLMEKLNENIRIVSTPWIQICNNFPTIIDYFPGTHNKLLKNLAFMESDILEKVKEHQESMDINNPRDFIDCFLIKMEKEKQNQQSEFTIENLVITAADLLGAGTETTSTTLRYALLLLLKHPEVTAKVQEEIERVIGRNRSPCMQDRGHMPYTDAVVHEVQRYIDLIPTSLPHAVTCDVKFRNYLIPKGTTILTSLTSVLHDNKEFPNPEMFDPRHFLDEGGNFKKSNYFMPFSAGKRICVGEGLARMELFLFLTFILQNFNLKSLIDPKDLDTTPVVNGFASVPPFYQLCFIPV

Sequence of human CYP2C9 (P11712 whole entry): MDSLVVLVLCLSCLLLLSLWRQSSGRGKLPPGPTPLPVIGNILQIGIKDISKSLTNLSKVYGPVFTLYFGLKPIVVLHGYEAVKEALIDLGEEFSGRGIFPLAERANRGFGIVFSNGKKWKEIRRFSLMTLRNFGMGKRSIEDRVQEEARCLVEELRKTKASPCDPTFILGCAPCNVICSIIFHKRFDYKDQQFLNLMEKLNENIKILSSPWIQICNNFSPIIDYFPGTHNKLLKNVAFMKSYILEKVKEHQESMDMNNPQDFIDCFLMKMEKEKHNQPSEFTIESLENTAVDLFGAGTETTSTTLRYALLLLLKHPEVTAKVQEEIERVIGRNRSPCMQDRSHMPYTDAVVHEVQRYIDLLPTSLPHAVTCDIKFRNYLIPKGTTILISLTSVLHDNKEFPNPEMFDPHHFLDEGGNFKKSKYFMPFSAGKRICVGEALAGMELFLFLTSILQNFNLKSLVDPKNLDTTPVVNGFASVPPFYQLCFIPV
Sequence of CYP3A4 (P08684 whole entry): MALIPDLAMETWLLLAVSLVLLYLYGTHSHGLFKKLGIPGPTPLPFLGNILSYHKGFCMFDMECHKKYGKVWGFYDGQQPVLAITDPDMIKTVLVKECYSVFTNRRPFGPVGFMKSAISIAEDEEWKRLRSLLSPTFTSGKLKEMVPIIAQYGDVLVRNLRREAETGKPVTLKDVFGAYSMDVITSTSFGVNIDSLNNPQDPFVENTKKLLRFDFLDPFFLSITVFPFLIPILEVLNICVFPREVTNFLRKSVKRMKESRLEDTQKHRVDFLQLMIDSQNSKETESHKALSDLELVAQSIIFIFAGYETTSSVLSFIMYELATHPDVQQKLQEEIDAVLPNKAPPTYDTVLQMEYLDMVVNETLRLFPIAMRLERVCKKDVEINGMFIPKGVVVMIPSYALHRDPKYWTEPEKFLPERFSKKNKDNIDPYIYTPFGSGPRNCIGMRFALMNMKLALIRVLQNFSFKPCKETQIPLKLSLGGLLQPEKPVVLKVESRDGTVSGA
Sequence of human CYP2D6 (P10635 whole entry): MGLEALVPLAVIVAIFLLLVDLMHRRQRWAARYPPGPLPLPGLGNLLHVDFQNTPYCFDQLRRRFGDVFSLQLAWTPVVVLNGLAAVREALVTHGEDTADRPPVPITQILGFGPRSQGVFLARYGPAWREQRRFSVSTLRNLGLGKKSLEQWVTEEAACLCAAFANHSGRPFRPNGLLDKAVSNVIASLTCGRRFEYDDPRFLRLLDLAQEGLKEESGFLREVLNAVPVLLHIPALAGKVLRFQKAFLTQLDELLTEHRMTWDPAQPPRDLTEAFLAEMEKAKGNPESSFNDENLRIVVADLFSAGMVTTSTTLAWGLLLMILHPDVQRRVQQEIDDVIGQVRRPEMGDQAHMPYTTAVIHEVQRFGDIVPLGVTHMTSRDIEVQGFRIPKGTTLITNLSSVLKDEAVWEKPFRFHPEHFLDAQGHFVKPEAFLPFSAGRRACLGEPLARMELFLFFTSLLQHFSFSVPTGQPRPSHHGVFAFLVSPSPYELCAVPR
Sequence of Photinus pyralis (firefly) luciferase (P08659 whole entry): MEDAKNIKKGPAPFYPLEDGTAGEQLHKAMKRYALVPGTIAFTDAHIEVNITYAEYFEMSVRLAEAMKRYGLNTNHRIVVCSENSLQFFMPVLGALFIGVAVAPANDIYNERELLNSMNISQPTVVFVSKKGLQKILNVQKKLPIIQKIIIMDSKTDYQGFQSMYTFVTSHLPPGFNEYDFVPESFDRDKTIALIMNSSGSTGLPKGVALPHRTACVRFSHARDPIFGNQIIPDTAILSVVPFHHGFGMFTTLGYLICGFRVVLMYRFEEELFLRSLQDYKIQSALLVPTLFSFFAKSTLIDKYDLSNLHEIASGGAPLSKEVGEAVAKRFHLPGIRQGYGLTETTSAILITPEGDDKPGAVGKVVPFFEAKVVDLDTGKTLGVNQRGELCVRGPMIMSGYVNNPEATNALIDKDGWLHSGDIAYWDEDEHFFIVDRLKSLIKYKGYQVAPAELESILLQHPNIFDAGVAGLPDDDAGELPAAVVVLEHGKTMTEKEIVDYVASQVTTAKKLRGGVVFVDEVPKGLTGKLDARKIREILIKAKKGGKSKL

Compound	IC50 (human CYP2D6)	Luciferase IC50 (half-maximal inhibitory concentration) [1]	IC50 (human CYP2C9)	IC50 (human CYP2C19)	IC50 (human CYP1A2)	IC50 (CYP3A4)	CYP2C19 Efficacy (human CYP2C19)	other results
CC(=O)OC1(c2ccccc2)CCN(CCc2ccccc2)CC1	0.57 µM	Inactive	53.2 µM	36.6 µM	–	–	–	CYP1A2 IC50 (half-maximal inhibitory concentration) (human CYP1A2): Inactive; CYP2D6 Efficacy (human CYP2D6): 0.57 ± 0.14 (-105 ± 2) %; AC50 (CYP3A4): 40.9 µM; CYP3A4 IC50 (half-maximal inhibitory concentration) (CYP3A4): 40.89 ± 0 (145 ± 9) µM; AC50 (human CYP2C9): 53.2 µM; AC50 (human CYP2C19): 36.6 µM
FC(F)(F)c1ccccc1-n1ccnc1	2.28 µM	Inactive	8.39 µM	–	4.14 µM	0.44 µM	9.3 ± 5.41 (-172 ± 73) %	–
CSc1ccc(C(=O)C(C)(C)N2CCOCC2)cc1	2.53 µM	Inactive	23.2 µM	–	40.1 µM	3.18 µM	0.94 ± 0.32 (-142 ± 3) %	–
C=CCc1cc(S(=O)(=O)c2ccc(O)c(CC=C)c2)ccc1O	6.26 µM	Inactive	0.4 µM	3.47 µM	73.9 µM	20 µM	–	CYP1A2 Efficacy (in parenthesis) (human CYP1A2): 73.87 ± 5 (-42 ± 2) %; CYP2D6 Efficacy (in parenthesis) (human CYP2D6): 6.26 ± 1.74 (-110 ± 9) %; CYP3A4 Efficacy (in parenthesis) (CYP3A4): 20.01 ± 7.14 (-71 ± 11) %; CYP2C9 Efficacy (in parenthesis) (human CYP2C9): 0.4 ± 0.13 (-67 ± 11) %; CYP2C19 Efficacy (in parenthesis) (human CYP2C19): 3.47 ± 1.89 (-136 ± 7) %
C[N+](C)(CCOc1ccccc1)Cc1cccs1.[I-]	0.15 µM	Inactive	–	–	–	–	–	CYP1A2 IC50 (half-maximal inhibitory concentration) (human CYP1A2): Inactive; CYP3A4 IC50 (half-maximal inhibitory concentration) (CYP3A4): Inactive; CYP2C9 IC50 (half-maximal inhibitory concentration) (human CYP2C9): Inactive; CYP2C19 IC50 (half-maximal inhibitory concentration) (human CYP2C19): Inactive
COC(=O)c1c(C)cc(O)c(C)c1O	33 µM	Inactive	50.2 µM	–	0.24 µM	53.2 µM	6.41 ± 1.34 (-140 ± 12) %	–
CCCCCCCC[N+](C)(CCCCCCCC)CCCCCCCC.O=S(=O)([O-])C(F)(F)F	0.19 µM	Inactive	28.3 µM	12.9 µM	47.6 µM	3.7 µM	–	–
CCCCCCCCCCCCCCCCCC[N+](C)(C)Cc1ccccc1.[Cl-]	–	–	–	–	–	45.9 µM	48.63 ± 14.39 (-147 ± 23) %	CYP1A2 Efficacy (human CYP1A2): 80.42 ± 0 (-111 ± 16) %; CYP2D6 Efficacy (human CYP2D6): 0.67 ± 0.43 (-99 ± 3) %; IC50 ([1]; read-out: Luciferase IC50): 87 µM; CYP2C9 Efficacy (human CYP2C9): 38.84 ± 2.53 (-102 ± 5) %
CCCC[N+](C)(CCCC)CCCC.O=S(=O)([N-]S(=O)(=O)C(F)(F)F)C(F)(F)F	0.48 µM	Inactive	5.83 µM	–	50.6 µM	67.4 µM	–	CYP2C19 IC50 (half-maximal inhibitory concentration) (human CYP2C19): Inactive
CCCCCCCCCCCCCC[P+](CCCC)(CCCC)CCCC.CCCCCCCCCCCCc1ccc(S(=O)(=O)[O-])cc1	0.21 µM	Inactive	15.7 µM	22 µM	24.3 µM	–	21.96 ± 3.74 (-142 ± 38) %	CYP1A2 AC50 (half-maximal activity concentration) (human CYP1A2): Inconclusive inhibitor; CYP1A2 Efficacy (in parenthesis) (human CYP1A2): 24.26 ± 16.34 (-39 ± 1) %; CYP2D6 Efficacy (human CYP2D6): 0.21 ± 0.10 (-107 ± 3) %; CYP2D6 Efficacy (in parenthesis) (human CYP2D6): 0.21 ± 0.1 (-107 ± 3) %; AC50 (CYP3A4): 7.93 µM; CYP3A4 Efficacy (in parenthesis) (CYP3A4): 7.93 ± 2.21 (104 ± 17) %; CYP3A4 IC50 (half-maximal inhibitory concentration) (CYP3A4): 7.93 ± 2.21 (104 ± 17) µM; CYP2C9 Efficacy (human CYP2C9): 15.74 ± 3.82 (-84 ± 8) %; CYP2C9 Efficacy (in parenthesis) (human CYP2C9): 15.74 ± 3.82 (-84 ± 8) %; CYP2C19 Efficacy (in parenthesis) (human CYP2C19): 21.96 ± 3.74 (-142 ± 38) %
CCCCCCCCCCCCCC[P+](CCCCCC)(CCCCCC)CCCCCC.O=S(=O)([N-]S(=O)(=O)C(F)(F)F)C(F)(F)F	0.25 µM	Inactive	6.41 µM	43.7 µM	37 µM	3.13 µM	–	–
